From US10350152B2, “Skin whitening composition, and method for screening for materials having skin whitening effect” (AMOREPACIFIC CORPORATION, priority 2015, dated 2019)

Assays:
Normal human melanocytes = test: Amount of secretion of exosomes from UVB-irradiated melanocytes (exosome marker CD81, western blot); type: cell-based; details: 10 μM, treated for 12 hours before UVB exposure (20 mJ/cm^2), cultured 24 hours
Experimental: Normal human melanocytes (Cascade Biologics, Portland, Oreg., USA) were kept in M-254 medium (Cascade) containing a human melanocyte growth supplement (Cascade). GW4869 (Santa Cruz Biotechnology, Santa Cruz, Calif., USA) and pifithrin-μ (Sigma, St. Louis, Mo., USA) were dissolved in DMSO for use. For isolation of exosomes, confluent melanocytes were washed with PBS and cultured in M-254 for 48 hours. Conditioned medium was collected and centrifuged at 500×g for 10 minutes, 3,000×g for 20 minutes, and 100,000×g for 2 hours. The resultant exosome-containing pellet was resuspended in PBS and stored at −80° C. Also, conditioned medium was purified by filtration through a 0.45 μm pore filter (Millipore, Billerica, Mass., USA) and concentrated using a 100 kDa cut-off spin column (Millipore). Exosomes were isolated using the ExoQuick-TC kit (SBI, San Jose, Calif., USA) according to the manufacturer's instructions. 20 μl of isolated exosomes were analyzed by western blot and silver staining. Cells or isolated exosomes were lysed with lysis buffer (1% NP-40, 0.05 M Tris-HCl, pH 7.5, 0.15 M NaCl, and 0.01 M MgCl2) containing protease inhibitors (Sigma). Protein concentrations were determined using BCA assays, and samples were […] by SDS-PAGE, transferred to a PVDF membrane, and probed with antibodies against CD81 (SBI). […]

melanocytes = test: Viability of melanocytes cultured with exosomes (crystal violet cytotoxicity test); type: cell-based, human; details: exosomes from melanocytes treated with ultraviolet rays together with inhibitor; recipient melanocytes irradiated with UVB 20 mJ/cm^2, cultured 3 days
Experimental: Normal human melanocytes (Cascade Biologics, Portland, Oreg., USA) were kept in M-254 medium (Cascade) containing a human melanocyte growth supplement (Cascade). GW4869 (Santa Cruz Biotechnology, Santa Cruz, Calif., USA) and pifithrin-μ (Sigma, St. Louis, Mo., USA) were dissolved in DMSO for use. Melanocytes were seeded in a 6-well plate at a density of 1×10^4 cells/well. The next day, 10 μl of exosomes isolated from the same number of cells were treated. Cells were fixed with 4% formaldehyde in PBS for 15 minutes, washed with PBS and stained with 0.1% crystal violet for 20 minutes. After washing with PBS, the cells were dried and lysed with 10% acetic acid. The absorbance was measured at 590 nm using a spectrophotometer. Each of the exosomes obtained from UVB-untreated melanocytes, UVB-treated melanocytes, or UVB- and GW4869-treated melanocytes, together with melanocytes, were irradiated with UVB (20 mJ/cm^2), and cultured for 3 days.

Question: For `Cl.Cl.O=C(/C=C/c1ccc(/C=C/C(=O)Nc2ccc(C3=NCCN3)cc2)cc1)Nc1ccc(C2=NCCN2)cc1` [GW4869], which “amount of expression of the exosome marker CD81” value (Normal human melanocytes) is on record?
Answer: decreased

Question: And the “effect of exosomes from UVB- and inhibitor-treated melanocytes on viability of ultraviolet-irradiated melanocytes” value (melanocytes)?
Answer: reduced effect in the enhancement of the viability of melanocytes

Question: `NS(=O)(=O)C#Cc1ccccc1` [pifithrin-μ] was tested. Which “amount of expression of the exosome marker CD81” value (Normal human melanocytes) did it give?
Answer: decreased

Question: And the “effect of exosomes from UVB- and inhibitor-treated melanocytes on viability of ultraviolet-irradiated melanocytes” value (melanocytes)?
Answer: reduced effect in the enhancement of the viability of melanocytes
